Test results taken from patent publication US10765114B2, “4-amino-6-(pyridyl and 2-substitutedphenyl)-picolinates and 6-amino-2-(pyridyl and 2-substitutedphenyl)-pyrimidine-4-carboxylates and their use as herbicides” (Dow AgroSciences LLC, priority 2013, dated 2020).
Read-outs that look alike come from different tables or passages of the source.

Key:
[1] = test system: Key Grass and Sedge Weeds as well as Grass Crops; experiment: Post-Emergent Test II (Table 6); type: in vivo; details: post-emergence, 336 h, 14 days after application; for pest or weed control at 54.5 g/ha: 54.5 g ai/ha; for pest or weed control at 109 g/ha: 109 g ai/ha
Procedure, shortened: (§1)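 Plants grown in a greenhouse (~15 h photoperiod, 23-29° C day) to first or second true leaf stage were sprayed post-emergence at 187 L/ha with compound in acetone/DMSO-based aqueous spray containing crop oil concentrate and surfactant, applied at a high rate plus ½× to 1/16× serial rates. Injury was scored visually 14 days later, 0-100% versus untreated plants.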

[2] = test system: Key Broadleaf Weed and Crop Species; experiment: Post-Emergent Test II (Table 5); type: in vivo; details: post-emergence, 336 h; for pest or weed control at 54.5 g/ha: application rate 54.5 (kg ai/ha; footnote: g ai/ha); for pest or weed control at 109 g/ha: application rate 109 (kg ai/ha; footnote: g ai/ha)
Procedure, shortened: as §1

[3] = DIGSA: crabgrass (Digitaria sanguinalis), read-out: Visual Growth Reduction (%) 14 Days After Application DIGSA
[4] = ECHSS, read-out: Visual Growth Reduction (%) 14 Days After Application ECHSS
[5] = ORYSS (crop), read-out: Visual Growth Reduction (%) 14 Days After Application ORYSS
[6] = SETFA: giant foxtail (Setaria faberi), read-out: Visual Growth Reduction (%) 14 Days After Application SETFA
[7] = SORVU: grain sorghum (Sorghum vulgare), read-out: Visual Growth Reduction (%) 14 Days After Application SORVU
[8] = TRZSS (crop), read-out: Visual Growth Reduction (%) 14 Days After Application TRZSS
[9] = ZEAMX: maize, corn (Zea mays), read-out: Visual Growth Reduction (%) 14 Days After Application ZEAMX
[10] = Abutilon theophrasti, ABUTH: velvetleaf (Abutilon theophrasti), read-out: Visual Growth Reduction (%) 14 Days After Application ABUTH
[11] = Amaranthus retroflexus, AMARE: redroot pigweed (Amaranthus retroflexus), read-out: Visual Growth Reduction (%) 14 Days After Application AMARE
[12] = Brassica napus, BRSSS: oilseed rape, canola (Brassica napus), read-out: Visual Growth Reduction (%) 14 Days After Application BRSSS
[13] = Chenopodium album, CHEAL: lambsquarters (Chenopodium album), read-out: Visual Growth Reduction (%) 14 Days After Application CHEAL
[14] = Euphorbia heterophylla, EPHHL: wild poinsettia (Euphorbia heterophylla), read-out: Visual Growth Reduction (%) 14 Days After Application EPHHL
[15] = Helianthus annuus, HELAN: sunflower (Helianthus annuus), read-out: Visual Growth Reduction (%) 14 Days After Application HELAN
[16] = Viola tricolor, VIOTR: wild pansy (Viola tricolor), read-out: Visual Growth Reduction (%) 14 Days After Application VIOTR

Structure (SMILES): COC(=O)c1nc(-c2ccc(Cl)c(F)c2SC)c(F)c(N)c1Cl [Compound 18]
- pest or weed control at 54.5 g/ha ([1]; CYPSS, read-out: Visual Growth Reduction (%) 14 Days After Application CYPSS): 95 to 100%
- pest or weed control at 54.5 g/ha [1, 3]: 0 to 29%
- pest or weed control at 109 g/ha [1, 3]: 0 to 29%
- pest or weed control at 54.5 g/ha [1, 4]: 0 to 29%
- pest or weed control at 109 g/ha [1, 4]: 0 to 29%
- pest or weed control at 54.5 g/ha [1, 5]: 0 to 29%
- pest or weed control at 109 g/ha [1, 5]: 0 to 29%
- pest or weed control at 54.5 g/ha [1, 6]: 0 to 29%
- pest or weed control at 109 g/ha [1, 6]: 0 to 29%
- pest or weed control at 54.5 g/ha [1, 7]: 0 to 29%
- pest or weed control at 109 g/ha [1, 7]: 0 to 29%
- pest or weed control at 54.5 g/ha [1, 8]: 0 to 29%
- pest or weed control at 109 g/ha [1, 8]: 0 to 29%
- pest or weed control at 54.5 g/ha [1, 9]: 0 to 29%
- pest or weed control at 109 g/ha [1, 9]: 0 to 29%
- pest or weed control at 54.5 g/ha [2, 10]: 60 to 74%
- pest or weed control at 109 g/ha [2, 10]: 60 to 74%
- pest or weed control at 54.5 g/ha [2, 11]: 75 to 84%
- pest or weed control at 109 g/ha [2, 11]: 95 to 100%
- pest or weed control at 54.5 g/ha [2, 12]: 0 to 29%
- pest or weed control at 109 g/ha [2, 12]: 0 to 29%
- pest or weed control at 54.5 g/ha [2, 13]: 85 to 94%
- pest or weed control at 109 g/ha [2, 13]: 85 to 94%
- pest or weed control at 54.5 g/ha [2, 14]: 0 to 29%
- pest or weed control at 109 g/ha [2, 14]: 0 to 29%
- pest or weed control at 54.5 g/ha [2, 15]: 75 to 84%
- pest or weed control at 109 g/ha [2, 15]: 75 to 84%
- pest or weed control at 54.5 g/ha [2, 16]: 0 to 29%
- pest or weed control at 109 g/ha [2, 16]: 0 to 29%
